Earlier results in patent US20120003325A1, “USE OF HELIUM-OXYGEN GAS MIXTURES FOR TREATING PULMONARY ARTERIAL HYPERTENSION” (BAYER SCHERING PHARMA AKTIENGESELLSCHAFT, priority 2008, published 2012).

Settings: oil-water mixture

In the case of `[He]` [helium], the “solubility relative to the solubility of oxygen or nitrogen” value is listed as 30%.
